Data on one compound can be found in patent publication US11779014B2, “Adjuvants” (SYNGENTA PARTICIPATIONS AG, priority 2017, dated 2023).

For one assay, the system named is Avena fatua (AVEFA). As to the kind of experiment: Glasshouse adjuvancy test for pinoxaden on AVEFA. Particulars: total surfactant 0.2% w/v, 21 days. In kind it is in vivo. As to the method:
(§1) The efficacy of 1:1 blends of oleyl 20EO with oleyl 20EO with either n-hexanoyl, n-octanoyl or 2-ethyl hexanoyl ester caps as adjuvants for the herbicide pinoxaden was tested in a glasshouse against two weed species, sown into standard soil in pots and cultivated under controlled conditions in a glasshouse (20/16° C. day/night; 16 hours light; 65% humidity). Pinoxaden was added to the spray tank as a standard EC (emulsifiable concentrate) formulation. The plants were sprayed with pinoxaden at rates of 7.5 or 15 grams of pesticide per hectare using a laboratory track sprayer which delivered the aqueous spray composition at a rate of 200 litres per hectare, using a flat fan nozzle (Teejet 11002VS) at 2 bar. The spray solutions also contained the oleyl 20EO alone or in the 1:1 blends with the capped surfactants. The adjuvants were added to the spray solution at a total surfactant rate of 0.2% w/v. All spray solutions also contained 10% w/w of iso-propanol. The weed species and their BBCH growth stage at spraying were Avena fatua (AVEFA; growth stage 13) and Setaria viridis (SETVI; growth stage 13). Each spray test was replicated three times. The test plants were then grown in a glasshouse under controlled conditions (20/16° C. day/night; 16 hours light; 65% humidity) and watered twice a day. The efficacy of the herbicide was assessed visually and expressed as a percentage of the leaf area killed. Samples were assessed at a time period of 21 days following application.
Dodecyl 23EO and hexadecyl 20EO were capped with an n-hexyl ether cap. The efficacy of 1:1 blends of these with their uncapped counterparts were tested as adjuvants for the herbicide pinoxaden was tested in a glasshouse against two weed species, sown into standard soil in pots and cultivated under controlled conditions in a glasshouse (20/16° C. day/night; 16 hours light; 65% humidity). Pinoxaden was added to the spray tank as a standard EC (emulsifiable concentrate) formulation. The plants were sprayed with pinoxaden at a.i. rates of 7.5 or 15 grams per hectare using a laboratory track sprayer which delivered the aqueous spray composition at a rate of 200 litres per hectare, using a flat fan nozzle (Teejet 11002VS) at 2 bar. The spray solutions tested included the capped and uncapped alone or in the 1:1 blends with the capped surfactants. The adjuvants were added to the spray solution at a total surfactant rate of 0.2% w/v. All spray solutions also contained 10% w/w of iso-propanol. The weed species and their BBCH growth stage at spraying was Avena fatua (AVEFA; growth stage 12). Each spray test was replicated three times. The test plants were then grown in a glasshouse under controlled conditions (20/16° C. day/night; 16 hours light; 65% humidity) and watered twice a day. The efficacy of the herbicide was assessed visually and expressed as a percentage of the leaf area killed. Samples were assessed at a time period of 21 days following application.
Oleyl 20EO was capped with -butyl, n-pentyl and n-benzyl caps. The efficacy of 1:1 blends of these with their uncapped counterparts were tested as adjuvants for the herbicide pinoxaden was tested in a glasshouse against two weed species, sown into standard soil in pots and cultivated under controlled conditions in a glasshouse (20/16° C. day/night; 16 hours light; 65% humidity). Pinoxaden was added to the spray tank as a standard EC (emulsifiable concentrate) formulation. The plants were sprayed with pinoxaden at a.i. rates of 7.5 or 15 grams per hectare using a laboratory track sprayer which delivered the aqueous spray composition at a rate of 200 litres per hectare, using a flat fan nozzle (Teejet 11002VS) at 2 bar. The spray solutions tested included the capped and uncapped alone or in the 1:1 blends with the capped surfactants. The adjuvants were added to the spray solution at a total surfactant rate of 0.2% w/v. All spray solutions also contained 10% w/w of iso-propanol.

The test system of the next assay is Setaria viridis (SETVI). The assay can be described thus: Glasshouse adjuvancy test for pinoxaden on SETVI. In kind it is in vivo. Particulars: total surfactant 0.2% w/v, 21 days. The method, then: as §1, with “Pinoxaden” for “The efficacy of 1:1 blends of oleyl 20EO with oleyl 20EO with either n-hexanoyl, n-octanoyl or 2-ethyl hexanoyl ester caps as adjuvants for the herbicide pinoxaden was tested in a glasshouse against two weed species, sown into standard soil in pots and cultivated under controlled conditions in a glasshouse (20/16° C. day/night; 16 hours light; 65% humidity). Pinoxaden”

As to `CCCCCCCC/C=C\CCCCCCCCOCCOCCOCCOCCOCCOCCOCCOCCOCCOCCOCCOCCOCCOCCOCCOCCOCCOCCOCCOCCO` [Oleyl 20EO, oleyl 20 ethoxylate], the Mean control is 65.0% in the assay on Avena fatua (AVEFA) (pinoxaden 7.5 g ai/ha, Example 4); 86.7% in the assay with Avena fatua (AVEFA) (pinoxaden 15 g ai/ha, Example 4); 92.7% in the assay on Avena fatua (AVEFA) (pinoxaden 15 g ai/ha, Example 9, growth stage 12); 98.0% in the assay on Setaria viridis (SETVI) (pinoxaden 7.5 g ai/ha); 98.3% in the assay on Setaria viridis (SETVI) (pinoxaden 15 g ai/ha).
